Data taken from ChEMBL document CHEMBL1139829, “2-Benzenesulfonyl-8a-benzyl-hexahydro-2H-isoquinolin-6-ones as selective glucocorticoid receptor antagonists” (Bioorg Med Chem Lett, 2007).

Legend:
[1] = molecular target: T1, Glucocorticoid receptor (Homo sapiens, UniProt P04150); experiment: Displacement of [3H]dexamethasone from human glucocorticoid receptor expressed in recombinant baculovirus
T1 sequence (P04150 whole entry): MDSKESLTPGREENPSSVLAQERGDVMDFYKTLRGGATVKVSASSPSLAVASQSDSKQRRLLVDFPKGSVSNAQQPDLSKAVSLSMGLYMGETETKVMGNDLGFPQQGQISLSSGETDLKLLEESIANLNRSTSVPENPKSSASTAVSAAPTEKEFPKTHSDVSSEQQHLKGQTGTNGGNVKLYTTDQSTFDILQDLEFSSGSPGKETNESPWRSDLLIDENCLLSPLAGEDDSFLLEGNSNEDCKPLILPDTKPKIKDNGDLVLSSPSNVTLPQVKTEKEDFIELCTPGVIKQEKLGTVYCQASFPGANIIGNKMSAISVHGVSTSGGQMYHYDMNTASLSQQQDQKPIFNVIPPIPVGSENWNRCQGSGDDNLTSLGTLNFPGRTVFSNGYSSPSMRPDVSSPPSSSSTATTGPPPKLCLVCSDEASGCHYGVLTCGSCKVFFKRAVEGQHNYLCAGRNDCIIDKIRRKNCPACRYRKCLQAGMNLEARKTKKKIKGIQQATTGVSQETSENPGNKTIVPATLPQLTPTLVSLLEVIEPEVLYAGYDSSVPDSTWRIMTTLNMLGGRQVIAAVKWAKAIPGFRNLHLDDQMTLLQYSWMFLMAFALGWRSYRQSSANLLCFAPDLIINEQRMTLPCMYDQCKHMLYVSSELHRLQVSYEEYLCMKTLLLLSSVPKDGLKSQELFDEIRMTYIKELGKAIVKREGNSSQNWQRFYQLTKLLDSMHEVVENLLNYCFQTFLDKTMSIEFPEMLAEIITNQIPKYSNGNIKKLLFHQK

[2] = molecular target: T1, Glucocorticoid receptor; experiment: Antagonist activity at human glucocorticoid receptor in SW1353 cells assessed as inhibition of dexamethasone-induced luciferase expression by MMTV5 reporter gene assay; format: functional, cell-based
[3] = molecular target: T1, Glucocorticoid receptor; experiment: Binding affinity to glucocorticoid receptor in SW1353 cells by whole-cell binding assay; format: cell-based
[4] = molecular target: CYP2C9 (Homo sapiens, UniProt P11712); experiment: Inhibition of CYP2C9 at 1 uM; format: ADME
[5] = molecular target: CYP2C19 (Homo sapiens, UniProt P33261); experiment: Inhibition of CYP2C19 at 1 uM; format: ADME
[6] = molecular target: CYP2D6 (Homo sapiens, UniProt P10635); experiment: Inhibition of CYP2D6 at 1 uM; format: ADME
Sequence of CYP2D6 (P10635 whole entry): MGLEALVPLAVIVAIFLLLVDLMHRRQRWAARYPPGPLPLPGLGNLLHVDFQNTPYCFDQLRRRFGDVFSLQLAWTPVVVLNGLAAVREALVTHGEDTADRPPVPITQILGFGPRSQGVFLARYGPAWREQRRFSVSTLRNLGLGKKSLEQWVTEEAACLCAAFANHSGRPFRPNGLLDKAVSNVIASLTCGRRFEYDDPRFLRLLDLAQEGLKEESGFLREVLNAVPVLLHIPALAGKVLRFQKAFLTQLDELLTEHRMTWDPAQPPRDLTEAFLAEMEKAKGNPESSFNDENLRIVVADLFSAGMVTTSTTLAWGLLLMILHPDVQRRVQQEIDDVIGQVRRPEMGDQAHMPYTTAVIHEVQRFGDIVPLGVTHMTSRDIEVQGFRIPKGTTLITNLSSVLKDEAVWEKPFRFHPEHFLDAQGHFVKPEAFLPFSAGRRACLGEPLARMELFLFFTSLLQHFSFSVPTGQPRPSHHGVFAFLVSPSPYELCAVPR

Sequence of CYP2C9 (P11712 whole entry): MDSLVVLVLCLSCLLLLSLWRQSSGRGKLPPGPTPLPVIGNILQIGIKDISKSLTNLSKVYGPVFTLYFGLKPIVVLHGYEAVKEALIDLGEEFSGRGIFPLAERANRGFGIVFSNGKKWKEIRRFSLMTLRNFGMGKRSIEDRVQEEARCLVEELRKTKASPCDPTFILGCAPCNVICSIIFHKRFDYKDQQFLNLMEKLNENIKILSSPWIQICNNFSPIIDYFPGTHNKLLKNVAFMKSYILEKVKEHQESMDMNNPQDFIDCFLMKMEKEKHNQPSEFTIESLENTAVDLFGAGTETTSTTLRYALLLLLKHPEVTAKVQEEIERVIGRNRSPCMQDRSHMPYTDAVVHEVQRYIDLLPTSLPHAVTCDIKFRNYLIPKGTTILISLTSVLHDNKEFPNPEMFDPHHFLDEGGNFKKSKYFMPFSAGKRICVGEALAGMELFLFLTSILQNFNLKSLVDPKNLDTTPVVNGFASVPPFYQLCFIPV
Sequence of CYP2C19 (P33261 whole entry): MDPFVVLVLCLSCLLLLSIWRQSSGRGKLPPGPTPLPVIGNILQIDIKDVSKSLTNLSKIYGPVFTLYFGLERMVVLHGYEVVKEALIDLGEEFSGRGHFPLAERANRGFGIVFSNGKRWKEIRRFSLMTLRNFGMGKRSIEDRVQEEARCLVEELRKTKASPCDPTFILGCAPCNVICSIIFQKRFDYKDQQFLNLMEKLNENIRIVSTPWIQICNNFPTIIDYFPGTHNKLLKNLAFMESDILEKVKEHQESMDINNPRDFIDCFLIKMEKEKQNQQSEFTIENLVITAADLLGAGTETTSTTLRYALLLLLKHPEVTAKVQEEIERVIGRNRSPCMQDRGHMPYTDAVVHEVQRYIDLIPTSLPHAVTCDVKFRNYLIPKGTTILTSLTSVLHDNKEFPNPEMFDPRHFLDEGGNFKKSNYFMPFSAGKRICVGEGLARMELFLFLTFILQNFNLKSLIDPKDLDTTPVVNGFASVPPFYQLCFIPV

SMILES | Ki [1] [µM] | also measured
O=C1C=C2CCN(Cc3ccccc3)CC2(Cc2ccccc2)CC1 (racemic) | 3.7 | –
CC(C)(C)c1ccc(S(=O)(=O)N2CCC3=CC(=O)CCC3(Cc3ccc(Br)cc3)C2)cc1 (centres undefined) | 0.009 | Ki [2]: 0.2 µM
O=C1C=C2CCN(C(=O)c3ccccc3)CC2(Cc2ccccc2)CC1 (racemic) | > 10 | –
COc1ccc(CC23CCC(=O)C=C2CCN(S(=O)(=O)c2ccc(C(C)(C)C)cc2)C3)cc1 (racemic) | 0.006 | Ki [2]: 0.23 µM
COc1cccc(CC23CCC(=O)C=C2CCN(S(=O)(=O)c2ccc(C(C)(C)C)cc2)C3)c1 (centres undefined) | 0.076 | –
CC(=O)Nc1ccc(CC23CCC(=O)C=C2CCN(S(=O)(=O)c2ccc(C(C)(C)C)cc2)C3)cc1 (racemic) | 0.056 | Ki [2]: > 1 µM
CC(C)(C)c1ccc(S(=O)(=O)N2CCC3=CC(=O)CCC3(Cc3ccc(N4CCOCC4)cc3)C2)cc1 (centres undefined) | 0.01 | Ki [2]: 0.4 µM
COc1ccc(C[C@]23CCC(=O)C=C2CCN(S(=O)(=O)c2ccc(C(C)(C)C)cc2)C3)cc1 | 0.004 | Ki [3]: 0.352 µM; Ki [2]: 0.2 µM
CC(C)(C)c1ccc(S(=O)(=O)N2CCC3=CC(=O)CCC3(Cc3ccc(C#N)cc3)C2)cc1 (racemic) | 0.065 | –
O=C1C=C2CCN(Cc3ccncc3)CC2(Cc2ccccc2)CC1 (racemic) | > 10 | –
COc1ccc(CN2CCC3=CC(=O)CCC3(Cc3ccccc3)C2)cc1 (racemic) | 2.25 | –
CCCCS(=O)(=O)N1CCC2=CC(=O)CCC2(Cc2ccccc2)C1 (racemic) | > 10 | –
CN(C)S(=O)(=O)Nc1ccc(CC23CCC(=O)C=C2CCN(S(=O)(=O)c2ccc(C(C)(C)C)cc2)C3)cc1 (racemic) | 0.013 | Ki [2]: 0.323 µM
CC#C[C@@]1(O)CC[C@@]2(Cc3ccccc3)c3ccc(O)cc3CC[C@@H]2C1 | 0.0006 | Ki [3]: 0.0055 µM; Ki [2]: 0.004 µM
CN(C)c1ccc(CC23CCC(=O)C=C2CCN(S(=O)(=O)c2ccc(C(C)(C)C)cc2)C3)cc1 (racemic) | 0.015 | Ki [2]: > 1 µM
O=C1C=C2CCN(S(=O)(=O)c3ccc(-c4ccccc4)cc3)CC2(Cc2ccccc2)CC1 (centres undefined) | 0.055 | –
COc1ccc(N2CCC3=CC(=O)CCC3(Cc3ccccc3)C2)cc1 (centres undefined) | > 5 | –
O=C1C=C2CCN(C(=O)Nc3ccccc3)CC2(Cc2ccccc2)CC1 (racemic) | > 10 | –
CC(C)(C)c1ccc(S(=O)(=O)N2CCC3=CC(=O)CCC3(Cc3ccc(N4CCCCC4)cc3)C2)cc1 (racemic) | 0.009 | Ki [2]: > 1 µM
CCCCC(=O)N1CCC2=CC(=O)CCC2(Cc2ccccc2)C1 (racemic) | > 10 | –
CC(C)(C)c1ccc(S(=O)(=O)N2CCC3=CC(=O)CCC3(Cc3ccc(-c4ccncc4)cc3)C2)cc1 (racemic) | 0.002 | inhibition at 1 µM [4]: 76%; Ki [2]: 0.18 µM; inhibition at 1 µM [5]: 61%; inhibition at 1 µM [6]: 44%
O=C1C=C2CCN(S(=O)(=O)c3ccc(N4CCOCC4)cc3)CC2(Cc2ccccc2)CC1 (centres undefined) | 0.064 | –

Now from value to molecule, other results behind:

Ki [1] [µM] | SMILES | also measured
0.216 | COc1ccc(S(=O)(=O)N2CCC3=CC(=O)CCC3(Cc3ccccc3)C2)cc1 (racemic) | –
0.75 | CC(=O)Nc1ccc(S(=O)(=O)N2CCC3=CC(=O)CCC3(Cc3ccccc3)C2)cc1 (racemic) | –
0.099 | Cc1ccc(S(=O)(=O)N2CCC3=CC(=O)CCC3(Cc3ccccc3)C2)cc1 (racemic) | –
0.004 | CC(C)(C)c1ccc(S(=O)(=O)N2CCC3=CC(=O)CC[C@]3(Cc3ccccc3)C2)cc1 | Ki [2]: 0.2 µM
1.3 | COc1ccc(S(=O)(=O)N2CCC3=CC(=O)CCC3(Cc3ccccc3)C2)cc1OC (racemic) | –
0.099 | CC(C)(C)c1ccc(S(=O)(=O)N2CCC3=CC(=O)CCC3(Cc3ccc(N)cc3)C2)cc1 (racemic) | –
> 10 | COc1cccc(OC)c1S(=O)(=O)N1CCC2=CC(=O)CCC2(Cc2ccccc2)C1 (racemic) | –
3 | O=C1C=C2CCN(S(=O)(=O)c3cccc([N+](=O)[O-])c3)CC2(Cc2ccccc2)CC1 (racemic) | –
1.2 | O=C1C=C2CCN(S(=O)(=O)Nc3ccccc3)CC2(Cc2ccccc2)CC1 (racemic) | –
0.225 | O=C1C=C2CCN(S(=O)(=O)c3ccccc3)CC2(Cc2ccccc2)CC1 (racemic) | –
0.013 | CC(C)(C)c1ccc(S(=O)(=O)N2CCC3=CC(=O)CCC3(Cc3ccc(NS(C)(=O)=O)cc3)C2)cc1 (racemic) | Ki [2]: > 1 µM
1.95 | CS(=O)(=O)Nc1ccccc1S(=O)(=O)N1CCC2=CC(=O)CCC2(Cc2ccccc2)C1 (racemic) | –
0.95 | CS(=O)(=O)Nc1ccc(S(=O)(=O)N2CCC3=CC(=O)CCC3(Cc3ccccc3)C2)cc1 (racemic) | –
1.25 | O=C1C=C2CCN(S(=O)(=O)c3ccc([N+](=O)[O-])cc3)CC2(Cc2ccccc2)CC1 (racemic) | –
0.432 | O=C1C=C2CCN(S(=O)(=O)c3cccc(Cl)c3)CC2(Cc2ccccc2)CC1 (racemic) | –
0.163 | O=C1C=C2CCN(S(=O)(=O)c3ccc(Oc4ccccc4)cc3)CC2(Cc2ccccc2)CC1 (racemic) | –
0.005 | CC(C)(C)c1ccc(S(=O)(=O)N2CCC3=CC(=O)CCC3(Cc3ccc(F)cc3)C2)cc1 (racemic) | Ki [2]: > 1 µM
4.45 | O=C1C=C2CCN(S(=O)(=O)c3ccccc3C(F)(F)F)CC2(Cc2ccccc2)CC1 (racemic) | –
0.196 | COc1cccc(S(=O)(=O)N2CCC3=CC(=O)CCC3(Cc3ccccc3)C2)c1 (racemic) | –
0.045 | CC(C)(C)c1ccc(S(=O)(=O)N2CCC3=CC(=O)CCC3(Cc3ccc([N+](=O)[O-])cc3)C2)cc1 (racemic) | –
0.193 | O=C1C=C2CCN(S(=O)(=O)c3ccc(Cl)cc3)CC2(Cc2ccccc2)CC1 (racemic) | –
0.8 | O=C1C=C2CCN(S(=O)(=O)c3ccc(F)cc3)CC2(Cc2ccccc2)CC1 (racemic) | –
0.014 | CC(C)(C)c1ccc(S(=O)(=O)N2CCC3=CC(=O)CCC3(Cc3ccccc3)C2)cc1 (racemic) | Ki [2]: > 1 µM
> 10 | CC(C)(C)c1ccc(S(=O)(=O)N2CCC3=CC(=O)CC[C@@]3(Cc3ccccc3)C2)cc1 | –
2.1 | CS(=O)(=O)Nc1cccc(S(=O)(=O)N2CCC3=CC(=O)CCC3(Cc3ccccc3)C2)c1 (centres undefined) | –
1 | N#Cc1ccccc1S(=O)(=O)N1CCC2=CC(=O)CCC2(Cc2ccccc2)C1 (racemic) | –
0.113 | CN(C)c1ccc(S(=O)(=O)N2CCC3=CC(=O)CCC3(Cc3ccccc3)C2)cc1 (racemic) | –
0.137 | CS(=O)(=O)c1ccc(S(=O)(=O)N2CCC3=CC(=O)CCC3(Cc3ccccc3)C2)cc1 (racemic) | –
